Assays:
[1] = target: human recombinant histamine H1 receptor (Homo sapiens, UniProt P35367); experiment: Histamine H1 radioligand binding assay; conditions: [3H]Pyrilamine specific binding; for inhibition at 1 µM: read-out: Percentage Inhibition, Histamine Binding (1 μM) H1
Description: To evaluate in radioligand binding assays the activity of compounds of the invention, human recombinant histamine H1 receptor expressed in Chinese hamster ovary (CHO) cells [De Backer, M. D. et al., Biochem. Biophys. Res. Comm. (1993), 197(3):1601] in a modified Tris-HCl buffer (50 mM Tris-HCl, pH 7.4, 2 mM MgCl2, 100 mM NaCl, 250 mM Sucrose) was used. Compounds of the invention were incubated with 1.2 nM [^3H]Pyrilamine for 180 min. at 25° C. Non-specific binding was estimated in the presence of 1 μM pyrilamine. Receptor proteins were filtered and washed, the filters were then counted to determine [^3H]Pyrilamine specifically bound. Compounds were screened at 1 μM or lower, using 1% DMSO as vehicle. Biochemical assay results are presented as the percent inhibition of specific binding in Table 2.

[2] = target: T1, human recombinant histamine H2 receptor (Homo sapiens, UniProt P25021); experiment: Histamine H2 radioligand binding assay; conditions: [125I]Aminopotentidine specific binding; for inhibition at 1 µM: read-out: Percentage Inhibition, Histamine Binding (1 μM) H2
T1 construct: expressed in transfected cells; host or cells: Chinese hamster ovary (CHO) K1 cells
T1 sequence (P25021 whole entry): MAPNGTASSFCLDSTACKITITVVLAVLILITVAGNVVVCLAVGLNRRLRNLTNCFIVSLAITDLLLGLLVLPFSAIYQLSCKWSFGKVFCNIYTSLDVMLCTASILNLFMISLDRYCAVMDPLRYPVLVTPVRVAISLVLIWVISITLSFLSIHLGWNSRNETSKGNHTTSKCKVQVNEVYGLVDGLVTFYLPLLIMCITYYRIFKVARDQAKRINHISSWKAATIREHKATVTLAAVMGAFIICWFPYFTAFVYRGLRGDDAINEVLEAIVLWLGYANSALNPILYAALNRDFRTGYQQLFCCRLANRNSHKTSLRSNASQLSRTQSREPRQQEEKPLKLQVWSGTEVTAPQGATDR
Description: To evaluate in radioligand binding assays the activity of compounds of the invention, human recombinant histamine H2 receptor expressed in Chinese hamster ovary (CHO) K1 cells [Ruat, M., Proc. Natl. Acad. Sci. USA. (1990), 87(5):1658] in a 50 mM Phosphate buffer, pH 7.4 was used. Compounds of the invention were incubated with 0.1 nM [^125I]Aminopotentidine for 120 min. at 25° C. Non-specific binding was estimated in the presence of 3 μM Tiotidine. Receptor proteins were filtered and washed, the filters were then counted to determine [^125I]Aminopotentidine specifically bound. Compounds were screened at 1 μM or lower, using 1% DMSO as vehicle. Biochemical assay results are presented as the percent inhibition of specific binding in Table 2.

[3] = target: T2, human recombinant serotonin (5-Hydroxytryptamine) 5-HT2A receptor (Homo sapiens, UniProt P28223); experiment: Serotonin 5-HT2A radioligand binding assay; conditions: [3H]Ketanserin specific binding; for inhibition at 1 µM: read-out: Percent Inhibition of ligand binding, Serotonin (1 μM ligand concentration) 5-HT2A
T2 construct: expressed in transfected cells; host or cells: Chinese hamster ovary (CHO-K1) cells
T2 sequence (P28223 whole entry): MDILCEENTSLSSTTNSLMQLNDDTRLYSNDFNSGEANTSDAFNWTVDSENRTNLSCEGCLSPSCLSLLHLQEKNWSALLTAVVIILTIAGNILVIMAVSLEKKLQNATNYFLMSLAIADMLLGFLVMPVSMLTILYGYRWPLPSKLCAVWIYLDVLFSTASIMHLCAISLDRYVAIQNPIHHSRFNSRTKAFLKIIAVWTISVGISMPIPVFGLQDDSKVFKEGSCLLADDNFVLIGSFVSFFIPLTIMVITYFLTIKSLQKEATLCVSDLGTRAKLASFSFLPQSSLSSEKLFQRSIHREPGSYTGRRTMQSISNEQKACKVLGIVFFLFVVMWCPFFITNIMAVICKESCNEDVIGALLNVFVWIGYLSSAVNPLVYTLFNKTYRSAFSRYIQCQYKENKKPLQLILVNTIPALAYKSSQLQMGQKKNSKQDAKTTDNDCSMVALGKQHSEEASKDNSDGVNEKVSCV
Description: To evaluate in radioligand binding assays the activity of compounds of the invention, human recombinant serotonin (5-Hydroxytryptamine) 5-HT2A receptor expressed in Chinese hamster ovary (CHO-K1) cells [Bonhaus, D. W. et al., Br. J. Pharmacol. (1995), 115:622; Saucier, C. et al., J. Neurochem. (1997), 68:1998] in a 50 mM Tris-HCl buffer, pH 7.4, was used. Compounds of the invention were incubated with 0.5 nM [^3H]Ketanserin for 60 min. at 25° C. Non-specific binding was estimated in the presence of 1 μM Mianserin. Receptor proteins were filtered and washed, the filters were then counted to determine [^3H]Ketanserin specifically bound. Compounds were screened at 1 μM or lower, using 1% DMSO as vehicle. Biochemical assay results are presented as the percent inhibition of specific binding in Table 4.

[4] = target: T3, human recombinant serotonin (5-Hydroxytryptamine) 5-HT2C receptor (Homo sapiens, UniProt P28335); experiment: Serotonin 5-HT2C radioligand binding assay; conditions: [3H]Mesulergine specific binding; for inhibition at 1 µM: read-out: Percent Inhibition of ligand binding, Serotonin (1 μM ligand concentration) 5-HT2C
T3 construct: expressed in transfected cells; host or cells: Chinese hamster ovary (CHO-K1) cells
T3 sequence (P28335 33-458): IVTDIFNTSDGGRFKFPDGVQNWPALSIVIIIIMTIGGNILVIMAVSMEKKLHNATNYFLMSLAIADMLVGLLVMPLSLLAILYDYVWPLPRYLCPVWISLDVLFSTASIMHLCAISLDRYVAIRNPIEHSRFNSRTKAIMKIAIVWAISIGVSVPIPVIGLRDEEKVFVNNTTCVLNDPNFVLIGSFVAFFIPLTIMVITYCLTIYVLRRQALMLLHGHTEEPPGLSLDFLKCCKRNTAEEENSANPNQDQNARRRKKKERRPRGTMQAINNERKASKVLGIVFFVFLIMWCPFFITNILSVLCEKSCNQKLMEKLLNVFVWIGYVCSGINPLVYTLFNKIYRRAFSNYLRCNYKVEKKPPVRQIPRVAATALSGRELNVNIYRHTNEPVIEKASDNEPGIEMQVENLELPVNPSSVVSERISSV
Description: To evaluate in radioligand binding assays the activity of compounds of the invention, human recombinant serotonin (5-Hydroxytryptamine) 5-HT2C receptor expressed in Chinese hamster ovary (CHO-K1) cells [Wolf, W. A. et al., J. Neurochem. (1997), 69:1449] in a modified Tris-HCl buffer (50 mM Tris-HCl, pH 7.4, 0.1% Ascorbic Acid, 10 μM Pargyline) was used. Compounds of the invention were incubated with 1 nM [^3H]Mesulergine for 60 min. at 25° C. Non-specific binding was estimated in the presence of 1 μM Mianserin. Receptor proteins were filtered and washed, the filters were then counted to determine [^3H]Mesulergine specifically bound. Compounds were screened at 1 μM or lower, using 1% DMSO as vehicle. Biochemical assay results are presented as the percent inhibition of specific binding in Table 4.

Sequence of human recombinant histamine H1 receptor (P35367 whole entry): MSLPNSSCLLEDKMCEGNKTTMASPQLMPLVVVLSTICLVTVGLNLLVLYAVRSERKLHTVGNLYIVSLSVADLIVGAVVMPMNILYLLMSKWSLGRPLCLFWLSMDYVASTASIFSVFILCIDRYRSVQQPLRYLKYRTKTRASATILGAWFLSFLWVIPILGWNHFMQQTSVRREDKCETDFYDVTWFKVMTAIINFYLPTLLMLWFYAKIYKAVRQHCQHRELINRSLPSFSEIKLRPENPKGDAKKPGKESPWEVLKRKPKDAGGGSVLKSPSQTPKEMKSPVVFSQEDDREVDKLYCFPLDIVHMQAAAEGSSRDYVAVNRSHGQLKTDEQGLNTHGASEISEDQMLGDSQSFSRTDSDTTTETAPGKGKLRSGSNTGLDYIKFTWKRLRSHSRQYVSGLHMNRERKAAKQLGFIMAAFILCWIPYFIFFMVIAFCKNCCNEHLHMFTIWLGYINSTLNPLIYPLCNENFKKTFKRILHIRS

Cc1ccc2c(c1)c1c(n2CC(=O)N(C)C)CN2CCC1C2 (stereo not shown) [Compound 27]
inhibition at 1 µM [1]: 10% | inhibition at 1 µM [2]: -3% | inhibition at 1 µM [3]: -4% | inhibition at 1 µM [4]: -1%

C=C(Cn1c2c(c3cc(C)ccc31)C1CCN(C2)C1)c1ccc(F)cc1 (stereo not shown) [Compound 3]
Percentage Inhibition, Histamine Binding (1 μM) H1 [1]: 60% | inhibition at 1 µM [1]: 59% | inhibition at 1 µM [2]: 25% | inhibition at 1 µM [3]: 94% | inhibition at 1 µM [4]: 97%

Cc1ccc2c(c1)c1c(n2CC(=O)NC2CCCCC2)CN2CCC1C2 (stereo not shown) [Compound 23]
inhibition at 1 µM [1]: 13% | inhibition at 1 µM [2]: -3% | inhibition at 1 µM [3]: -4% | inhibition at 1 µM [4]: 11%

C/C(=C\n1c2c(c3cc(C)ccc31)C1CCN(C2)C1)c1ccc(Cl)cc1 (stereo not shown) [Compound 32]
inhibition at 1 µM [1]: 85% | inhibition at 1 µM [2]: 82% | inhibition at 1 µM [3]: 86% | inhibition at 1 µM [4]: 92%

Cc1ccc2c(c1)c1c(n2CC(O)c2ccc(F)cc2)CN2CCC1C2 (stereo not shown) [Compound 31]
inhibition at 1 µM [1]: 42% | inhibition at 1 µM [2]: 5% | inhibition at 1 µM [3]: 58% | inhibition at 1 µM [4]: 46%

C/C(=C/n1c2c(c3cc(C)ccc31)C1CCN(C2)C1)c1ccccc1F (stereo not shown) [Compound 37]
inhibition at 1 µM [1]: 78% | inhibition at 1 µM [2]: 22% | inhibition at 1 µM [3]: 96% | inhibition at 1 µM [4]: 94%

C/C(=C\n1c2c(c3cc(C)ccc31)C1CCN(C2)C1)c1ccc(F)c(F)c1 (stereo not shown) [Compound 39]
inhibition at 1 µM [1]: 26% | inhibition at 1 µM [2]: 20% | inhibition at 1 µM [3]: 94% | inhibition at 1 µM [4]: 94%

Cc1ccc2c(c1)c1c(n2CCc2nc(-c3ccccc3)cs2)CN2CCC1C2 (stereo not shown) [Compound 19]
inhibition at 1 µM [1]: 82% | inhibition at 1 µM [2]: -9% | inhibition at 1 µM [3]: 0% | inhibition at 1 µM [4]: 23%

Cc1ccc2c(c1)c1c(n2CC(C)(O)c2ccc(Cl)cc2Cl)CN2CCC1C2 (stereo not shown) [Compound 14]
inhibition at 1 µM [1]: 37% | inhibition at 1 µM [2]: 24% | inhibition at 1 µM [3]: 61% | inhibition at 1 µM [4]: 87%

Cc1ccc2c(c1)c1c(n2CC(C)(O)c2ccc(F)c(F)c2)CN2CCC1C2 (stereo not shown) [Compound 15]
inhibition at 1 µM [1]: 82% | inhibition at 1 µM [2]: 13% | inhibition at 1 µM [3]: 82% | inhibition at 1 µM [4]: 87%

Cc1ccc2c(c1)c1c(n2CCc2ccc(C)nc2)CN2CCC1C2 (stereo not shown) [Compound 12]
inhibition at 1 µM [1]: 59% | inhibition at 1 µM [2]: 4% | inhibition at 1 µM [3]: 17% | inhibition at 1 µM [4]: 5%

Cc1ccc2c(c1)c1c(n2CC(=O)N2CCCCC2)CN2CCC1C2 (stereo not shown) [Compound 7]
inhibition at 1 µM [1]: 17% | inhibition at 1 µM [2]: -4% | inhibition at 1 µM [3]: -3% | inhibition at 1 µM [4]: 2%

C/C(=C\n1c2c(c3cc(C)ccc31)C1CCN(C2)C1)c1ccc(Cl)cc1Cl (stereo not shown) [Compound 34]
Percentage Inhibition, Histamine Binding (1 μM) H1 [1]: 34% | Percentage Inhibition, Histamine Binding (1 μM) H2 ([2]; 1 µM): 40% | Percent Inhibition of ligand binding, Serotonin (1 μM ligand concentration) 5-HT2A [3]: 94% | Percent Inhibition of ligand binding, Serotonin (1 μM ligand concentration) 5-HT2C [4]: 99%

Cc1ccc2c(c1)c1c(n2CCc2ccncc2)CN2CCC1C2 (stereo not shown) [Compound 30]
inhibition at 1 µM [1]: 76% | inhibition at 1 µM [2]: 18% | inhibition at 1 µM [3]: 71% | inhibition at 1 µM [4]: 85%

C/C(=C\n1c2c(c3cc(C)ccc31)C1CCN(C2)C1)c1cccnc1 (stereo not shown) [Compound 42]
inhibition at 1 µM [1]: 20% | inhibition at 1 µM [2]: 1% | inhibition at 1 µM [3]: 47% | inhibition at 1 µM [4]: 64%

Cc1ccc(/C=C/n2c3c(c4cc(C)ccc42)C2CCN(C3)C2)cc1 (stereo not shown) [Compound 10]
inhibition at 1 µM [1]: 70% | inhibition at 1 µM [2]: 6% | inhibition at 1 µM [3]: 20% | inhibition at 1 µM [4]: 9%

Cc1ccc2c(c1)c1c(n2CCc2ccc(C(F)(F)F)nc2)CN2CCC1C2 (stereo not shown) [Compound 1]
inhibition at 1 µM [1]: 32% | inhibition at 1 µM [2]: 0% | inhibition at 1 µM [3]: 18% | inhibition at 1 µM [4]: 10%

Cc1ccc2c(c1)c1c(n2CC(=O)c2ccc(F)cc2)CN2CCC1C2 (stereo not shown) [Compound 28]
inhibition at 1 µM [1]: 64% | inhibition at 1 µM [2]: 18% | inhibition at 1 µM [3]: 61% | inhibition at 1 µM [4]: 83%

Cc1ccc2c(c1)c1c(n2CC(=O)N2CCOCC2)CN2CCC1C2 (stereo not shown) [Compound 26]
inhibition at 1 µM [1]: 17% | inhibition at 1 µM [2]: -1% | inhibition at 1 µM [3]: 5% | inhibition at 1 µM [4]: 20%

Cc1ccc2c(c1)c1c(n2CC(C)(O)c2ccc(Cl)cc2)CN2CCC1C2 (stereo not shown) [Compound 16]
inhibition at 1 µM [1]: 20% | inhibition at 1 µM [2]: 10% | inhibition at 1 µM [3]: 92% | inhibition at 1 µM [4]: 92%

C/C(=C\n1c2c(c3cc(C)ccc31)C1CCN(C2)C1)c1ccncc1 (stereo not shown) [Compound 44]
inhibition at 1 µM [1]: 23% | inhibition at 1 µM [2]: -3% | inhibition at 1 µM [3]: 67% | inhibition at 1 µM [4]: 58%

Cc1ccc2c(c1)c1c(n2C(=O)Cc2ccc(F)cc2)CN2CCC1C2 (stereo not shown) [Compound 43]
inhibition at 1 µM [1]: 16% | inhibition at 1 µM [2]: 7% | inhibition at 1 µM [3]: 48% | inhibition at 1 µM [4]: 66%

Cc1ccc2c(c1)c1c(n2CC(C)(O)c2ccc(F)cc2)CN2CCC1C2 (stereo not shown) [Compound 2]
inhibition at 1 µM [1]: 21% | inhibition at 1 µM [2]: 8% | inhibition at 1 µM [3]: 76% | inhibition at 1 µM [4]: 57%

Cc1ccc2c(c1)c1c(n2CC(=O)c2ccccc2)CN2CCC1C2 (stereo not shown) [Compound 21]
inhibition at 1 µM [1]: 40% | inhibition at 1 µM [2]: -6% | inhibition at 1 µM [3]: 16% | inhibition at 1 µM [4]: -4%

C/C(=C\n1c2c(c3cc(C)ccc31)C1CCN(C2)C1)c1ccc(Cl)c(Cl)c1 (stereo not shown) [Compound 40]
inhibition at 1 µM [1]: 57% | inhibition at 1 µM [2]: 39% | inhibition at 1 µM [3]: 94% | inhibition at 1 µM [4]: 89%

Cc1ccc2c(c1)c1c(n2CCc2cncc(F)c2)CN2CCC1C2 (stereo not shown) [Compound 9]
inhibition at 1 µM [1]: 89% | inhibition at 1 µM [2]: 6% | inhibition at 1 µM [3]: -6% | inhibition at 1 µM [4]: 4%

Cc1ccc2c(c1)c1c(n2CC(C)(O)c2ccc(F)cc2F)CN2CCC1C2 (stereo not shown) [Compound 17]
inhibition at 1 µM [1]: 16% | inhibition at 1 µM [2]: 4% | inhibition at 1 µM [3]: 81% | inhibition at 1 µM [4]: 92%

C/C(=C\n1c2c(c3cc(C)ccc31)C1CCN(C2)C1)c1ccc(Cl)cc1Cl (stereo not shown) [Compound 33]
Percentage Inhibition, Histamine Binding (1 μM) H1 [1]: 76% | inhibition at 1 µM [2]: 35% | inhibition at 1 µM [3]: 78% | inhibition at 1 µM [4]: 95%

Cc1ccc2c(c1)c1c(n2CC(O)c2ccccc2)CN2CCC1C2 (stereo not shown) [Compound 4]
inhibition at 1 µM [1]: 67% | inhibition at 1 µM [2]: 5% | inhibition at 1 µM [3]: 49% | inhibition at 1 µM [4]: 31%

Cc1ccc2c(c1)c1c(n2CC(C)(O)c2ccc(Cl)c(Cl)c2)CN2CCC1C2 (stereo not shown) [Compound 13]
inhibition at 1 µM [1]: 24% | inhibition at 1 µM [2]: 8% | inhibition at 1 µM [3]: 82% | inhibition at 1 µM [4]: 83%

— US9271971B2, “Pyrido[3,4-B]indoles and methods of use” (Medivation Technologies, Inc., priority 2009, dated 2016)
